Results published in ChEMBL document CHEMBL4376867 (J Med Chem, 2020).

Key:
CDK9/cyclin T1 = CDK9/cyclin T1 (Homo sapiens, UniProt P50750); experiment: Inhibition of recombinant full length human His-tagged CDK9/CyclinT1 expressed in baculovirus expression system using biotin-labelled Ttds-YISPLKSPYKISEG peptide as substrate preincubated with enzyme for 15 mins followed by substrate addition and further incubated for 25 mins presence of 10 uM of ATP by TR-FRET assay
[1] = Apparent permeability of compound across apical to basal membrane in human Caco2 cells at 2 uM in DMSO after 2 hrs by LC-MS/MS analysis; format: ADME, cell-based; details: Caco-2
IKK epsilon/TBK1 = biological target: T1, IKK epsilon/TBK1 (Homo sapiens, UniProt Q14164+Q9UHD2); experiment: Inhibition of IKKepsilon/TBK1 in human MDB-MB-231 cells transduced with lentiviral vector expressing human IRF3 assessed as decrease in poly(I:C)-stimulated IRF3 phosphorylation at S385/386 residues preincubated for 1 hr followed by poly(I:C) addition and measured after 1 hr; format: cell-based
T1 sequence (Q14164 whole entry): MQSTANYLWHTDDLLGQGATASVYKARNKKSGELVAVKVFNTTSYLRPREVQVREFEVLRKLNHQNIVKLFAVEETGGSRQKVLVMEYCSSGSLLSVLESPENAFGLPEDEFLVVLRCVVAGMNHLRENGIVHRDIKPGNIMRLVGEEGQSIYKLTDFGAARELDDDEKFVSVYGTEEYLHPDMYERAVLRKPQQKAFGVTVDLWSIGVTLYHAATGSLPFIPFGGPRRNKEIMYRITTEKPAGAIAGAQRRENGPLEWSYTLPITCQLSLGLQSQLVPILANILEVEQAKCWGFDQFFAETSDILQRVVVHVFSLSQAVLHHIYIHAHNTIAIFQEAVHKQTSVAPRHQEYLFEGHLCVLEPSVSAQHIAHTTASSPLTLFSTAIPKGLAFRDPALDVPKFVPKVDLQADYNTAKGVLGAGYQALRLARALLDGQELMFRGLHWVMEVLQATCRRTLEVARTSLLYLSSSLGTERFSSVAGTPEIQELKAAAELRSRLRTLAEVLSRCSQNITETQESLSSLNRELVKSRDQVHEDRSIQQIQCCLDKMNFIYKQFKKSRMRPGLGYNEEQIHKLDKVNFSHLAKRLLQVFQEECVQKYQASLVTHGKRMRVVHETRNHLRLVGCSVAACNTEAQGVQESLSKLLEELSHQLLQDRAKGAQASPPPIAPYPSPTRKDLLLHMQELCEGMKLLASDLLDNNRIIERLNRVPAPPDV
T1 sequence (Q9UHD2 whole entry): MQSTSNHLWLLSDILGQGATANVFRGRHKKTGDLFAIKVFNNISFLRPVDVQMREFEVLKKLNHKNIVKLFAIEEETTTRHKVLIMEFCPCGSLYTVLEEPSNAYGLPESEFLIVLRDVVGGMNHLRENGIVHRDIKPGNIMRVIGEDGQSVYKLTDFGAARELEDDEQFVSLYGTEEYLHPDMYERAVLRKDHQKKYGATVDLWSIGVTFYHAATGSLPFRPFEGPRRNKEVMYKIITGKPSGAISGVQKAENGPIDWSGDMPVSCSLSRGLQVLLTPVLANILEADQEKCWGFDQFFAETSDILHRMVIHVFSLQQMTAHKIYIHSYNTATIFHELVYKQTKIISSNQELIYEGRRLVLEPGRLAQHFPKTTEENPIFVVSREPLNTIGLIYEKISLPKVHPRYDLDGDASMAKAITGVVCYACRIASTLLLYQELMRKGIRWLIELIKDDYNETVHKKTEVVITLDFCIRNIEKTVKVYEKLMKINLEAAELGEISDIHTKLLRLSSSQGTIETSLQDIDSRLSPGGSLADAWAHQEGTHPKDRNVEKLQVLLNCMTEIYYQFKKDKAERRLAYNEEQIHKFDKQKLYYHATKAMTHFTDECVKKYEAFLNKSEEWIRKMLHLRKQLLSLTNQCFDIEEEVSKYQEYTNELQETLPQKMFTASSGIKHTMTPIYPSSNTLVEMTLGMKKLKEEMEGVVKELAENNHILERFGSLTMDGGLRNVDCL

[2] = biological target: Ribosomal protein S6 kinase alpha-6 (Homo sapiens, UniProt Q9UK32); experiment: Inhibition of recombinant full length human His6-tagged RSK4 expressed in baculovirus infected sf21 cells using biotin labelled Ahx-KKLNRTLSFAEPG peptide as substrate preincubated with enzyme for 15 mins followed by substrate addition and further incubated for 30 mins in presence of 10 uM of ATP by TR-FRET assay
[3] = biological target: T2, Receptor-type tyrosine-protein kinase FLT3 (Homo sapiens, UniProt P36888); experiment: Inhibition of recombinant human N-terminal GST-tagged FLT3 (564 to end residues) expressed in sf21 cells using biotin labelled Ahx-GGEEEEYFELVKKKK peptide as substrate preincubated with enzyme for 15 mins followed by substrate addition and further incubated for 45 mins in presence of 10 uM of ATP by TR-FRET assay
T2 sequence (P36888 whole entry): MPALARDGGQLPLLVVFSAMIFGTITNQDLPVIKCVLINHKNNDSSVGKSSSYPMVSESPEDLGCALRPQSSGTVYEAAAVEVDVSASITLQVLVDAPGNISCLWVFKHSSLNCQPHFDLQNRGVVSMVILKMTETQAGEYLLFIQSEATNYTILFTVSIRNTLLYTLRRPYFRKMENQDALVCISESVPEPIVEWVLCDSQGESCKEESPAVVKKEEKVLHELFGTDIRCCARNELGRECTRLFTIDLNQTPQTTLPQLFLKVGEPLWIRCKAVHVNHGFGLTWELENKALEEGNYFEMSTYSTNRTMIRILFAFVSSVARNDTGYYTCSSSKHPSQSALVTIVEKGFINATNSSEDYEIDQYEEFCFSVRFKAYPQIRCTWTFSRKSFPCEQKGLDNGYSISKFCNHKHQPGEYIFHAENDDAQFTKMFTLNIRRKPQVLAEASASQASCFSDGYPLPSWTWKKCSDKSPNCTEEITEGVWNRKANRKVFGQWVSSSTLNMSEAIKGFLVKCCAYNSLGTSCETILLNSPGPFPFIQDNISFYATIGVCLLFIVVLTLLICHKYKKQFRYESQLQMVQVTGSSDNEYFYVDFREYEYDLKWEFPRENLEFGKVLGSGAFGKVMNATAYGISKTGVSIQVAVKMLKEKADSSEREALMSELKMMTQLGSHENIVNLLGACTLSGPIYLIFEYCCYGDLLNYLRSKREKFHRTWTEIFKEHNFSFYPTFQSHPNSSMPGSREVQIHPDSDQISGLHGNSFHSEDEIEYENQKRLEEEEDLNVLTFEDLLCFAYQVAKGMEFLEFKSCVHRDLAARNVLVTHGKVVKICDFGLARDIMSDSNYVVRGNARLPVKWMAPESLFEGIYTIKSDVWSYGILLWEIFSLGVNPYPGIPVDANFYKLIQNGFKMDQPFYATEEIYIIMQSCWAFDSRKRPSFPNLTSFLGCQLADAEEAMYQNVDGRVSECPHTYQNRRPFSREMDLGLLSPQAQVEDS

[4] = Efflux ratio of apparent permeability across basolateral to apical membrane over apical to basolateral membrane in human Caco2 cells; format: ADME, cell-based; details: Caco-2
[5] = biological target: T3, Serine/threonine-protein kinase TBK1 (Homo sapiens, UniProt Q9UHD2); experiment: Inhibition of recombinant full length human N-terminal His-tagged TBK1 using biotin-labelled Ahx-GDEDFSSFAEPG peptide as substrate preincubated with enzyme for 15 mins followed by substrate addition and further incubated for 30 mins in presence of 1 mM of ATP by TR-FRET assay
T3 sequence (Q9UHD2 whole entry): T1 sequence (Q9UHD2 whole entry)

[6] = biological target: T4, Inhibitor of nuclear factor kappa-B kinase subunit epsilon (Homo sapiens, UniProt Q14164); experiment: Inhibition of recombinant full length human C-terminal GST-tagged IKKepsilon expressed in baculovirus expression system using biotin-labelled Ahx-GDEDFSSFAEPG peptide as substrate preincubated with enzyme for 15 mins followed by substrate addition and further incubated for 30 mins in presence of 10 uM of ATP by TR-FRET assay
T4 sequence (Q14164 whole entry): T1 sequence (Q14164 whole entry)

[7] = Apparent permeability of compound across basal to apical membrane in human Caco2 cells at 2 uM in DMSO after 2 hrs by LC-MS/MS analysis; format: ADME, cell-based; details: Caco-2
SK-MEL-2 = experiment: Antiproliferative activity against human SK-MEL-2 cells harboring NRAS/TP53 mutation assessed as reduction in cell viability after 96 hrs by CellTiter-Glo luminescence assay; format: functional, cell-based; details: SK-MEL-2, 96 h
ACHN = experiment: Antiproliferative activity against human ACHN cells harboring CDKN2A mutation assessed as reduction in cell viability after 96 hrs by CellTiter-Glo luminescence assay; format: functional, cell-based
[8] = biological target: T3, Serine/threonine-protein kinase TBK1
[9] = biological target: T5, Serine/threonine-protein kinase 17A (Homo sapiens, UniProt Q9UEE5); experiment: Inhibition of wild-type human partial length DRAK1 (R32 to E363 residues) expressed in bacterial expression system by Kinomescan method
T5 sequence (Q9UEE5 whole entry): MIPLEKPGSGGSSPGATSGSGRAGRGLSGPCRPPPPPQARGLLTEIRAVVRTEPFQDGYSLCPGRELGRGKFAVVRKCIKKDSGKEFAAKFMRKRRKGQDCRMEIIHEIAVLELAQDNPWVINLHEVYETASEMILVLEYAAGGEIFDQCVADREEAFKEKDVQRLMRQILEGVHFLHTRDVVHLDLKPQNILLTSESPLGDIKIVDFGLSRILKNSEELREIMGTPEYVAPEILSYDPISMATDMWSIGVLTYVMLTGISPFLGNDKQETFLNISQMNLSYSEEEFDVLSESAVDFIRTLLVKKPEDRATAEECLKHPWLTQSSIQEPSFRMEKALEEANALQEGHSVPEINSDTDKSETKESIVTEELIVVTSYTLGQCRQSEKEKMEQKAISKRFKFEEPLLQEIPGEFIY

Sequence of CDK9/cyclin T1 (O60563 whole entry): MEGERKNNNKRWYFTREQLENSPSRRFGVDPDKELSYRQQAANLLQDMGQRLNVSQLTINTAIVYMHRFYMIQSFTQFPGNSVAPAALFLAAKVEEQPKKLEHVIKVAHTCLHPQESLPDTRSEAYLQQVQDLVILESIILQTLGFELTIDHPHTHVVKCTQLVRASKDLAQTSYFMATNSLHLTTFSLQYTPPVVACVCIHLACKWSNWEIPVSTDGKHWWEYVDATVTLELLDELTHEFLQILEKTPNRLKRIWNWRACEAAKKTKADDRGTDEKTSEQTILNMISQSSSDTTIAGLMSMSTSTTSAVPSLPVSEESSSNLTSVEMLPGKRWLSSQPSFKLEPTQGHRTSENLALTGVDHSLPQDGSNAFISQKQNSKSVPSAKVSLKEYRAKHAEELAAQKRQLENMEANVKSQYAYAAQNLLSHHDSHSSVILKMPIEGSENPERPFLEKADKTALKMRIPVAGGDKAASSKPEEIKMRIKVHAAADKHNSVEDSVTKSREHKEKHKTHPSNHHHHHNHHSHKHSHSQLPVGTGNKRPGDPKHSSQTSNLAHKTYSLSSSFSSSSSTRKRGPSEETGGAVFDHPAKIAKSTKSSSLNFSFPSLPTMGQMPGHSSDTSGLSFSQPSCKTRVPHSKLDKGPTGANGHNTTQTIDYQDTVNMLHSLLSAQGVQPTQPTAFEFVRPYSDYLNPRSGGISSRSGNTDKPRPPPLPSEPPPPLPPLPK
Sequence of CDK9/cyclin T1 (P50750 whole entry): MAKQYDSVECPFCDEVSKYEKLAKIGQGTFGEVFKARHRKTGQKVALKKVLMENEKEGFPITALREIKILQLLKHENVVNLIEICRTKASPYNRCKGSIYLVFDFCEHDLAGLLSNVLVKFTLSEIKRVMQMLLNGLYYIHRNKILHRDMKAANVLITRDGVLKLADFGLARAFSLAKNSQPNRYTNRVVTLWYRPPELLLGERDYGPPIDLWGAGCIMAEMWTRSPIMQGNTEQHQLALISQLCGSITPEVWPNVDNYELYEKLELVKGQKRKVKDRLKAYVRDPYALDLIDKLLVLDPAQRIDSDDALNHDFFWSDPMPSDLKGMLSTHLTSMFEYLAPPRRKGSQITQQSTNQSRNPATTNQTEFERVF
Sequence of Ribosomal protein S6 kinase alpha-6 (Q9UK32 whole entry): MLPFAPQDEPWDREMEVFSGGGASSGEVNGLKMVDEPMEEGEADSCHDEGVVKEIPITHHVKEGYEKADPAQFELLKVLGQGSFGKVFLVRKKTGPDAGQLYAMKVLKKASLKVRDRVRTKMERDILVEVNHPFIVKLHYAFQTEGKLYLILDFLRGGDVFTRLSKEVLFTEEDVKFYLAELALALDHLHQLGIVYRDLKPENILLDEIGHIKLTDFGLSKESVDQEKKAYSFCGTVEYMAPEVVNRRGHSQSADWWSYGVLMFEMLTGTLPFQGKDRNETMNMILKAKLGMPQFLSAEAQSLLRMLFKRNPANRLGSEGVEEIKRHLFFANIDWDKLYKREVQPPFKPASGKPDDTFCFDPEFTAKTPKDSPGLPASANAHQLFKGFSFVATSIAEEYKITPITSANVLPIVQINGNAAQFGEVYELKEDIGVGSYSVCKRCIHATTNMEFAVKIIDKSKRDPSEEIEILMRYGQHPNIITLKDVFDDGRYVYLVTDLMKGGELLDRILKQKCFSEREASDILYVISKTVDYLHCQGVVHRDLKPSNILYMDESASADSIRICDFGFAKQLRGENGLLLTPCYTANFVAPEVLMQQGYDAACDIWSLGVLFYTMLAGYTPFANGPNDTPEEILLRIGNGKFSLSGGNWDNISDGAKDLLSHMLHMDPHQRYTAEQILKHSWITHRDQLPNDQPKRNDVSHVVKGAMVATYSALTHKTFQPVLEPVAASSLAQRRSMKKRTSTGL

Row | SMILES | IC50 (CDK9/cyclin T1) | Papp A→B at 2 h, 2 µM [1] | IC50 (IKK epsilon/TBK1) | IC50 [2] | IC50 [3] | efflux ratio [4] | IC50 [5] | IC50 [6] | Papp B→A at 2 h, 2 µM [7] | IC50 (SK-MEL-2) | IC50 (ACHN) | IC50 [8] | IC50 [9]
1 | CCn1cc(-c2ccc3nc(Nc4cc(CN5CCN(C(=O)CC(F)(F)F)CC5)ccn4)[nH]c3c2)cn1 | 1.46 µM | 1.7 ×10⁻⁶ cm/s | 1.58 µM | 8.85 µM | 0.017 µM | 10 | 0.53 µM | 0.098 µM | 17.3 ×10⁻⁶ cm/s | – | – | – | –
2 | O=C(NCC1CC1)c1ccc2nc(Nc3cc(CN4CCN(C(=O)CC(F)(F)F)CC4)ccn3)[nH]c2c1 | > 20 µM | 0.39 ×10⁻⁶ cm/s | – | – | – | 40 | 1.39 µM | 0.08 µM | 15.5 ×10⁻⁶ cm/s | 3.36 µM | > 33 µM | 0.093 µM | –
3 | N#Cc1ccc2nc(Nc3cc(CN4CCN(C(=O)CC(F)(F)F)CC4)ccn3)[nH]c2c1 | 0.005 µM | 3.2 ×10⁻⁶ cm/s | 2.03 µM | – | – | 8.3 | 0.618 µM | 0.017 µM | 26.8 ×10⁻⁶ cm/s | – | – | 0.029 µM | –
4 | C[C@H](c1ccnc(Nc2nc3ccc(-c4cnn(CC5CCC5)c4)cc3[nH]2)c1)N1CCN(C(=O)CC(F)(F)F)CC1 | > 20 µM | – | 0.093 µM | 0.325 µM | 0.357 µM | – | 0.006 µM | 0.004 µM | – | 3.71 µM | 5.42 µM | 0.002 µM | 0.015 µM
